Patent US20080221150A1, “Prevention of Neurodegeneration by Macrolide Antibiotics” (priority 2005, published 2008)
“Also recorded” adds a separate entry of the source.

Assays:
[1] = system: cerebellar granule neurons (CGNs); experiment: Cell viability via Calcein AM fluorogenic conversion assay; conditions: for effect on staurosporine-induced decrease in viability: 1 nM bafilomycin A1 + 0.1 μM staurosporine; for chloroquine-induced decrease in viability / cell death: 1 nM macrolide + 20 μM chloroquine
Experimental: (§1) Cerebellar granule neurons (CGNs) were isolated from postnatal day 7 mice as previously described^40. CGNs were plated in poly-L-lysine coated plates at a density of 1250 cells per mm^2. 48 well plates were used for viability and caspase activity assays; 100 mm dishes were used for western blot analysis; and 4 well […] chamber slides (Agene) were used for analysis of vacuolar acidification.
(§2) CGNs were treated in vitro on day 4. […] Separate cultures of CGNs were also treated for 24 h with staurosporine (0.1 μM), in the presence or absence of BafA1 (1-10 nM final).
(§3) Cell viability (via Calcein AM fluorogenic conversion assay; Molecular Probes, Eugene, Oreg.) and caspase-3-like activity (via fluorogenic DEVD cleavage assay) were performed as previously described 40 and were expressed relative to untreated controls.

caspase-3-like activity = experiment: Caspase-3-like activity via fluorogenic DEVD cleavage assay in CGNs; format: cell-based, mice
Experimental: as §1, §2, §3

cleaved caspase-3 = experiment: Western blot of cleaved caspase-3 in CGN lysates; format: cell-based, mice
Experimental: as §1, §2
Cells were detached from their substrate by incubation for 5 min at 37° C. with Accutase (Innovative Cell Technologies, San Diego, Calif.). Conditioned media and cells were centrifuged (700×g, 5 min, 4° C.). The supernatant was aspirated and re-suspended with 1 ml ice-cold PBS, then centrifuged again (700×g, 5 min, 4° C.). The resultant pellet was re-suspended in lysis buffer containing 25 mM HEPES, 5 mM EDTA, 5 mM MgCl2, 1% SDS, 1% Triton X-100, 1 mM PMSF, 1% protease inhibitor cocktail and 1% phosphatase inhibitor cocktail (Sigma). Cell lysates were sonicated to shear DNA and then centrifuged (10,000 rpm, 10 min, 4° C.), and the resultant supernatant (cleared whole cell lysates) was transferred to a fresh tube. Protein levels were determined subsequently via BCA assay (Pierce). Equal amounts of protein were resolved via SDS-PAGE and transferred to PVDF. After transfer blots were cut in half at approximately 37 kDa. […] Blots were blocked for 1 h, RT (5% milk), followed by overnight incubation with primary antibody. Blots were washed with 1×TBS containing 0.1% Tween 20, then incubated with secondary antibody (goat anti-rabbit IgG, Biorad) for 1 h, RT and subsequently washed. Signal was detected using Supersignal chemiluminescence (Pierce). […] Blots were scanned for densitometric analysis using Biorad Quantity One® software.

LC3 = experiment: Western blot of LC3 processing (LC3-I, LC3-II) in CGN lysates; format: cell-based, mice
Experimental: as §1, §2
Cells were detached from their substrate by incubation for 5 min at 37° C. with Accutase (Innovative Cell Technologies, San Diego, Calif.). Conditioned media and cells were centrifuged (700×g, 5 min, 4° C.). The supernatant was aspirated and re-suspended with 1 ml ice-cold PBS, then centrifuged again (700×g, 5 min, 4° C.). The resultant pellet was re-suspended in lysis buffer containing 25 mM HEPES, 5 mM EDTA, 5 mM MgCl2, 1% SDS, 1% Triton X-100, 1 mM PMSF, 1% protease inhibitor cocktail and 1% phosphatase inhibitor cocktail (Sigma). Cell lysates were sonicated to shear DNA and then centrifuged (10,000 rpm, 10 min, 4° C.), and the resultant supernatant (cleared whole cell lysates) was transferred to a fresh tube. Protein levels were determined subsequently via BCA assay (Pierce). Equal amounts of protein were resolved via SDS-PAGE and transferred to PVDF. After transfer blots were cut in half at approximately 37 kDa. […] Blots were blocked for 1 h, RT (5% milk), followed by overnight incubation with primary antibody. Blots were washed with 1×TBS containing 0.1% Tween 20, then incubated with secondary antibody (goat anti-rabbit IgG, Biorad) for 1 h, RT and subsequently washed. Signal was detected using Supersignal chemiluminescence (Pierce). After detection of cleaved caspase-3, the bottom blot was stripped using Restore Western Blot stripping buffer (Pierce) then probed with rabbit anti-LC3 (provided by Uchiyama laboratory), using the same western blot protocol as described above. Blots were scanned for densitometric analysis using Biorad Quantity One® software.

p18 Bax = experiment: Western blot of p18 Bax in CGNs; format: cell-based, mice
Experimental: as §1
CGNs were treated in vitro on day 4. […]
Cells were detached from their substrate by incubation for 5 min at 37° C. with Accutase (Innovative Cell Technologies, San Diego, Calif.). Conditioned media and cells were centrifuged (700×g, 5 min, 4° C.). The supernatant was aspirated and re-suspended with 1 ml ice-cold PBS, then centrifuged again (700×g, 5 min, 4° C.). The resultant pellet was re-suspended in lysis buffer containing 25 mM HEPES, 5 mM EDTA, 5 mM MgCl2, 1% SDS, 1% Triton X-100, 1 mM PMSF, 1% protease inhibitor cocktail and 1% phosphatase inhibitor cocktail (Sigma). Cell lysates were sonicated to shear DNA and then centrifuged (10,000 rpm, 10 min, 4° C.), and the resultant supernatant (cleared whole cell lysates) was transferred to a fresh tube. Protein levels were determined subsequently via BCA assay (Pierce). […] Signal was detected using Supersignal chemiluminescence (Pierce). […] Blots were scanned for densitometric analysis using Biorad Quantity One® software.

acidic vesicles = experiment: Labeling of acidic vesicles in CGNs with Lysotracker Red (LTR); format: cell-based, mice
Experimental: as §1, §2
(§4) Conditioned media was removed from CGNs grown in 4 well, permanox chamber slides. LTR (0.05 μM; Molecular Probes, Eugene, Oreg.) and Calcein AM (2.5 μg/ml; Molecular Probes, Eugene, Oreg.) were prepared in Locke's Buffer and added to each well for 30 min, 37° C. After this incubation the cells were washed with Locke's Buffer and cover-slipped. Images were captured using a Carl Zeiss Axioskop microscope equipped with epifluorescence.

[2] = system: cerebellar granule neurons (CGNs); experiment: Viable CGNs by viability marker calcein AM during LTR labeling; format: cell-based, mice; conditions: 24 h
Experimental: as §1, §2, §4

vacuolar ATPase = conditions: cited from earlier work
in vitro = conditions: mouse
Experimental: as §1, §2, §3

Bid = experiment: Cleavage of Bid in CGNs; format: cell-based, mice; conditions: chloroquine; data not shown
[3] = + chloroquine 20 μM for 24 hours, wild-type CGNs
[4] = 10 nM bafilomycin A1, 24 hours, Bax deficiency
[5] = all concentrations of bafilomycin A1 tested + 20 μM chloroquine, 24 hours
[6] = bafilomycin A1 by itself, 24 hours
[7] = co-addition with 20 μM chloroquine, 24 hours
[8] = 10 nM bafilomycin A1 by itself, 24 hours
[9] = bafilomycin A1 0.3-10 nM + 20 μM chloroquine, 24 hours

COC(=O)CC(NC(=O)OC(C)(C)C)C(=O)CF (stereo not shown) [BOC-aspartyl(Ome)-fluoromethyl ketone, reference compound]
effect on chloroquine-induced death [1, 3]: did not attenuate | effect on chloroquine-induced increase in caspase-3-like activity (caspase-3-like activity; [3]): significantly attenuate

CO/C1=C\C(C)=C\[C@@H](C)[C@@H](O)[C@@H](C)C/C(C)=C/C=C/[C@H](OC)[C@@H]([C@@H](C)[C@@H](O)[C@H](C)[C@@]2(O)C[C@@H](O)[C@H](C)[C@@H](C(C)C)O2)OC1=O [bafilomycin A1]
effect on staurosporine-induced decrease in viability ([1]; 24 hours): not altered | effect on staurosporine-induced decrease in viability ([1]; 24 hours, listed as Bafilomycin A1): did not prevent the decrease in viability | viability ([1]; 1 nM bafilomycin A1 + 20 μM chloroquine, 24 hours): 88% | viability ([1]; 10 nM bafilomycin A1 + 0.1 μM staurosporine, 24 hours): 20% | reduction in viability in Bax-deficient CGNs [1, 4]: prevented | chloroquine-induced decrease in viability ([1]; 10-100 nM bafilomycin A1 + 20 μM chloroquine, 24 hours): still attenuated; also recorded: inhibited chloroquine-induced death | chloroquine-induced decrease in viability [1, 5]: significantly attenuated | concentrations that did not decrease viability [1, 6]: ≤ 1 nM | concentrations that significantly decreased viability [1, 6]: ≥ 10 nM | concentration of maximal attenuation of chloroquine-induced decrease in viability [1, 7]: 1 nM | reduction of chloroquine-induced caspase-3-like activity (caspase-3-like activity; 1 nM bafilomycin A1 + 20 μM chloroquine, 24 hours, maximal): 3 fold | increase in caspase-3-like activity in Bax-deficient CGNs (caspase-3-like activity; [4]): prevented | concentrations that did not induce caspase-3-like activity (caspase-3-like activity; [6]): ≤ 1 nM | concentrations that increased caspase-3-like activity (caspase-3-like activity; [6]): ≥ 10 nM | concentrations that reduced chloroquine-induced increase in caspase-3-like activity (caspase-3-like activity; [7]): 0.3 to 1 nM | concentration at which increase in cleaved caspase-3 was apparent (cleaved caspase-3; [6]): 10 nM | concentrations that attenuated chloroquine-induced increase in cleaved caspase-3 (cleaved caspase-3; co-treatment with 20 μM chloroquine, 24 hours): ≤ 1 nM | levels of LC3-II (LC3; [8]): dramatic increase | ratio of LC3-II/LC3-I (LC3; [8]): increase | ratio of LC3-II to LC3-I (LC3; [5]): reduction | chloroquine-induced levels of LC3-II (LC3; [9]): did not attenuate | levels of LC3-I (LC3; [9]): appeared to increase | levels of LC3-I (LC3; bafilomycin A1 by itself, any concentration, 24 hours): did not change | increase in p18 Bax levels (p18 Bax; 1 nM bafilomycin A1 with chloroquine 20 μM, 24 hours): inhibits the increase in p18 Bax levels; also recorded: dramatically attenuated | LTR staining (acidic vesicles; 1 nM bafilomycin A1 + 20 μM chloroquine, 24 h, versus either alone): increase in LTR staining intensity | LTR staining / vacuolar acidification (acidic vesicles; 1 nM bafilomycin A1 by itself, 24 h): did not alter the staining pattern of LTR; also recorded: did not alter vacuolar acidification | LTR staining / vacuolar acidification (acidic vesicles; 10 nM bafilomycin A1, presence or absence of chloroquine, 24 h): prevented any detection of vacuolar acidification by LTR; also recorded: completely prevents LTR staining | numbers of viable neurons ([2]; 1 nM bafilomycin A1 + 20 μM chloroquine): increased numbers of viable neurons | viability by calcein AM ([2]; 1 nM bafilomycin A1 by itself): nor did it reduce viability | numbers of viable CGNs ([2]; 10 nM bafilomycin A1, presence or absence of chloroquine): decreased numbers of viable CGNs | concentrations reported to inhibit vacuolar ATPase (vacuolar ATPase): greater than 1 nM

CO/C1=C\C(C)=C\[C@@H](C)[C@@H](O)[C@@H](C)C/C(C)=C/C=C/[C@H](OC)[C@@H]([C@@H](C)[C@@H](O)[C@H](C)[C@@]2(O)C[C@@H](OC(=O)/C=C/C(=O)NC3=C(O)CCC3=O)[C@H](C)[C@@H](C(C)C)O2)OC1=O [bafilomycin B1]
chloroquine-induced decrease in viability / cell death ([1]; data not shown): inhibited chloroquine induced cell death | chloroquine-induced decrease in viability / cell death ([1]; data not shown, listed as Bafilomycin B1): attenuated

CCN(CC)CCCC(C)Nc1ccnc2cc(Cl)ccc12 (stereo not shown) [chloroquine, reference compound]
viability at 8 h, 20 μM (in vitro): 93% | viability at 24 h, 20 μM (in vitro): 24% | viability at 24 h, 40 μM (in vitro): 8% | cleaved caspase-3 temporal pattern (cleaved caspase-3; 20 μM chloroquine, 4-48 hours): most robust at 16 hours | levels of LC3-I (LC3; 20 μM chloroquine, 24-48 hours, versus control): appeared lower | chloroquine-induced increase in LC3-II in Bax-deficient CGNs (LC3; 20 μM chloroquine, 24 hours, Bax deficiency): did not prevent | time to elevation of LC3-II (LC3; 20 μM chloroquine, remained high through 48 hours): ≤ 4 h | amount of p18 Bax (p18 Bax; chloroquine 20 μM for 24 hours): increased | LTR staining (acidic vesicles; 20 μM chloroquine, 24 hours, surviving CGNs versus control): greater intensity of LTR staining | cleavage of Bid (Bid): not increased

C/C=C/[C@H]1O[C@@](O)([C@@H](C)[C@H](O)[C@H](C)[C@H]2OC(=O)/C(OC)=C/C(C)=C/[C@@H](C)[C@@H](O)[C@@H](CC)[C@@H](O)[C@H](C)C/C(C)=C/C=C/[C@@H]2OC)C[C@@H](O)[C@@H]1C [concanamycin]
chloroquine-induced decrease in viability / cell death ([1]; data not shown): inhibited chloroquine induced cell death

C[C@@H]1C[C@@H]([C@H](O)CC2CC(=O)NC(=O)C2)C(=O)[C@@H](C)C1 [cycloheximide, reference compound]
effect on magnitude of cell death induced by chloroquine ([1]; cycloheximide 0.1-1 mg/ml with chloroquine, data not shown): did not alter

CN[C@@H]1C[C@H]2O[C@@](C)([C@@H]1OC)n1c3ccccc3c3c4c(c5c6ccccc6n2c5c31)C(=O)NC4 [staurosporine, reference compound]
viability at 24 h, 0.1 μM (in vitro): 44% | caspase-3-like activity (caspase-3-like activity; 0.1 μM staurosporine, data not shown): significantly increases
